The values below come from patent US20240294525A1, “COMPOUNDS AS GLP-1 RECEPTOR AGONISTS AND USES THEREOF” (CGENETECH (SUZHOU, CHINA) CO., LTD., priority 2021, published 2024).

SMILES strings stand for the structures.

For one data set, the target named is GLP-1R (Homo sapiens, UniProt P43220). As to the kind of experiment: GLP-1R cAMP experiment (HTRF cAMP agonist detection). It is filed as cell-based. The conditions noted are these: GLP-1R-HEK293 cells. The method, then: The initial concentration was 500 nM, the compounds were diluted according to a 4-fold gradient in a total of 10 concentrations, and the diluent was dimethyl sulfoxide.
• 1) 100 nL of each compound was transferred to a OptiPlate 384-well plate by using an Echo liquid transfer system; and • 2) the 384-well plate was centrifuged at 1000 rpm for 5 s.
• 1) According to a conventional cell thawing method, a GLP-1R-HEK293 cell line was rapidly thawed in a 37° C. water bath; • 2) the cell suspension was transferred to a 15 mL centrifuge tube containing 10 mL of 1×HBSS solution; • 3) at room temperature, the tube was centrifuged at 1000 rpm for 5 min, to collect cells; 4) a supernatant was discarded carefully, and attention was paid to avoid sucking away the cells; • 5) the centrifuge tube was flicked gently, so that the cells were loosened, and 10 mL of 1×HBSS solution was added to resuspend the cells. The cells were blown and beaten up and down by using a sterile pipette, until the cells were blown and beaten to a single-cell state; • 6) the cells were counted by using a Vi-cell counter, to determine the cell concentration and determine the cell activity; • 7) GLP-1R-HEK293 cells were resuspended in a cAMP detection buffer solution (from the above cAMP detection kit), and the concentration was 2.0×10^5/mL; and 8) 10 μL of the GLP-1R-HEK293 cells was transferred into the OptiPlate 384-well plate. 2.4 HTRF cAMP Agonist Detection • 1) The 384-well plate was incubated at room temperature for 20 min, then a cAMP detection reagent (from the above cAMP detection kit) was added; • 2) an electric multi-channel pipette was used to add 10 μL of the cAMP detection reagent to each well; • 3) the 384-well plate was covered by using a TopSeal-A film, and incubated at room temperature for 60 min; and • 4) the TopSeal-A film was removed, and a signal on an Envision instrument was read.
For orientation: In TR-FRET formats the signal depends on donor and acceptor labels being close together.

Data set [1] is described as follows: Oral pharmacokinetics in mice. The data set is classed as in vivo, C57 mice. The following applies: 10 mg/kg. The protocol:
Healthy male C57 mice (9 mice per compound, n=3), purchased from Shanghai Jihui Laboratory Animal Care Co., LTD, with an age of 6-8 weeks.
The mice were fasted overnight before oral administration, and drunk freely, and feeding was resumed after 4 h of the administration. According to the weight of the mice weighed before the administration, the administration dose was calculated. It was intragastrically administered, and the administration dose was 10 mg/kg. At 0.083 h, 0.25 h, 0.5 h, 1 h, 2 h, 4 h, 8 h, and 24 h after the administration to test animals, about 110 μL of whole blood were respectively collected from submandibular veins of the mice by a semi-continuous method, and placed in a test tube containing K2EDTA. The tube was placed on ice, and centrifuged within 30 min (2000 g, 5 min, 4° C.), plasma was collected, transferred to an appropriately labeled test tube, and frozen at −80° C. in a refrigerator.
A chromatographic column was Waters ACQUITY UPLC BEH C18 (2.1×50 mm, and 1.7 μm); mobile phase A: H2O-0.025% FA-1 mM NH4OAC, mobile phase B: ACN-0.025% FA-1 mM NH4OAC, flow rate: 0.60 mL/min, gradient elution program: start, 2% B, 0.2 min; 60% B, 0.7 min; 90% B, 1.50 min; 90% B, 2.0 min; 2% B, 2.01 min; 2.6 min, and stop; column temperature: 50° C.; and injection volume: 1 μL.
Mass spectrometry method: LC-MS/MS-49 (Triple Quad 6500+)(SCIEX, USA), the ion source was an ESI source, the detection mode was positive ion detection, and the scanning mode was a multi-reaction monitoring (MRM) mode, m/z: 446.20/321.10 Da (Glipizide, internal standard).
10 μL of a plasma sample was taken and 200 μL of an internal standard working solution (Glipizide, 50 ng/mL) was added, vortex was performed for 1 min, then the mixture was centrifuged at 5800 rpm for 10 min. 70 μL of a supernatant was transferred to a 96-well plate, and 1 μL of the supernatant was taken and injected into LC-MS/MS for analysis.
Pharmacokinetic (PK) parameters were calculated by using Phoenix WinNonlin 7.0; and the oral pharmacokinetic parameters of the mice, including AUC, Cmax, Tmax, T1/2 and the like, were estimated by using a non-compartmental model. […] PGP-46 T2

In data set [2] the test system is hGLP-1R transgenic mouse B-hGLP-1R. Briefly: Mouse intraperitoneal glucose tolerance test (IPGTT). The data set is classed as in vivo. The conditions noted are these: hGLP-1R mice, 10 mg/kg oral gavage. An excerpt: Specific steps were as follows: • 1) After the arrival of experimental animals (hGLP-1R transgenic mouse B-hGLP-1R, SPF-grade mouse, male, 6-8 weeks, and purchased from Baiosaitu Jiangsu Gene Biotechnology Co., Ltd.), all experimental animals were divided into one animal per cage and fed and adapted for 7 days before the start of the experiment (during which the health status of the animals was observed). At least 3 days before the start of IPGTT, the animals were weighed and solvent (0.5% methylcellulose solution) intragastric administration and intraperitoneal saline injection were performed. • 2) On the day before the experiment, the experimental animals were fasted overnight (14 h, 19:00-9:00), and at 9:00 am, the experimental animals were weighed and blood was collected from tail tips to measure the blood glucose.

The subject of data set [3] is patients with Type-2 diabetes mellitus. The following applies: first-phase clinical; cited from earlier work.

Chain of GLP-1R (P43220 24-463): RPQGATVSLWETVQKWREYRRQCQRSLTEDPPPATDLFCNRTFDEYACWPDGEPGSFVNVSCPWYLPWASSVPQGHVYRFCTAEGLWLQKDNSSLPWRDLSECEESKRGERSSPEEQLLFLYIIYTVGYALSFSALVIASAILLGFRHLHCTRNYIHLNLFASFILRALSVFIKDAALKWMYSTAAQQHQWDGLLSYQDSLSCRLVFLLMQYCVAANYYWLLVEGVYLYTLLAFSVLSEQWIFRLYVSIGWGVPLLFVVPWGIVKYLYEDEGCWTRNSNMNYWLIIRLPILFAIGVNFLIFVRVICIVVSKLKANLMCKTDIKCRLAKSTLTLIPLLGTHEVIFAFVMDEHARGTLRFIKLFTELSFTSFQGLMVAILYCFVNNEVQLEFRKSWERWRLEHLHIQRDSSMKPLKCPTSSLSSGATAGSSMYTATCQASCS

On to `C#Cc1ccc(COc2nc(N3CCN(Cc4nc5ccc(C(=O)O)nc5n4C[C@@H]4CCO4)CC3)ccc2F)c(F)c1` [Compound 17], for which a half-maximal response at GLP-1R (EC50) required 0.56 nM. In data set [1] (male, C57, mouse, in vivo, po), the total exposure AUC(0-inf) (usually the area under the concentration-time curve extrapolated to infinity) worked out at 5140 ng·h/mL; the AUC(0-t) (in general, exposure summed from dosing to a finite time, without extrapolation to infinity) was 5130 ng·h/mL; the peak level (Cmax) was 2830 ng/mL; the MRT inf (commonly the average time that molecules of a dose stay in the body) turned out to be 1.9 h. Also, in data set [1] (male, C57, mouse, in vivo, po), the MRT last (as a rule, the average time that molecules of a dose stay in the body) stood at 1.9 h; the Tmax (usually the time from dosing to the highest level) was determined as 0.25 h; the half-life – broadly, the time in which the quantity being followed falls by half – was 3 h.
As for `C#Cc1ccc(COc2nc(N3CCN(Cc4nc5ccc(C(=O)O)cc5n4C[C@@H]4CCO4)CC3)ccc2F)cc1` [Compound 15], a half-maximal effect at GLP-1R (EC50) was put at 0.85 nM. In other words, the sub-nanomolar range.
As for `O=C(O)c1ccc2nc(CN3CCN(c4cccc(OCc5ccc(C#CCO)cc5F)n4)CC3)n(C[C@@H]3CCO3)c2c1` [Compound 5], it took 5.2 nM to reach a half-maximal effect on GLP-1R (EC50).
Regarding `C#Cc1ccc(COc2cccc(N3CCN(Cc4nc5ccc(C(=O)O)cc5n4C[C@@H]4CCO4)CC3)n2)c(F)c1` [Compound 2], the concentration for a half-maximal effect (EC50) (in general, the concentration that produces a half-maximal response) at GLP-1R was 0.96 nM. Further, in data set [1] (male, C57, mouse, in vivo, po), the AUC(0-inf) turned out to be 7010 ng·h/mL, the AUC(0-t) is 6930 ng·h/mL, the concentration peaked (Cmax) at 3170 ng/mL and the MRT inf was found to be 3 h. Besides, in data set [1] (male, C57, mouse, in vivo, po), the mean residence time (MRT last) worked out at 2.8 h, the Tmax came out at 0.5 h and the half-life was 2.6 h. Further, in data set [2] (2 g/kg glucose i.p.), the “blood glucose reducing effect” value is given as “significant blood glucose reducing effect”. For the same compound, in data set [2] (IPGTT), the “overall blood glucose-reducing effect compared with PF-06882961” value is on record as “better than PF-06882961”.
In the case of `C#Cc1ccc(COc2nc(N3CCN(Cc4nc5ccc(C(=O)O)nc5n4C[C@@H]4CCO4)CC3)ccc2F)cc1` [Compound 16], it took 1.07 nM to reach a half-maximal effect at GLP-1R (EC50).
Regarding `C#Cc1ccc(COc2cccc(N3CCN(Cc4nc5ccc(C(=O)O)cc5n4C[C@@H]4CCO4)CC3)n2)c(Cl)c1` [Compound 8], at GLP-1R, the EC50 was found to be 0.1 nM. In data set [1] (male, C57, mouse, in vivo, po), the AUC(0-inf) came out at 10900 ng·h/mL, the AUC(0-t) was 10900 ng·h/mL, the peak level (Cmax) was 4370 ng/mL and the MRT inf is 2.5 h. Moreover, in data set [1] (male, C57, mouse, in vivo, po), the mean residence time MRT last was 2.5 h, the Tmax came out at 1 h and the half-life was 2.3 h.
`N#Cc1ccc(COc2cccc(C3CCN(Cc4nc5ccc(C(=O)O)cc5n4C[C@@H]4CCO4)CC3)n2)c(F)c1` [PF-06882961, reference compound]: in data set [1] (male C57 mice, intragastric), the area under the curve AUC(0-t) came to 3427.0 ng·h/mL, the “AUC(0-∞)” value turned out to be 3444.0 ng·h/mL, the Cmax (usually the peak of the concentration-time curve) stood at 4967.0 ng/mL and the “MRT(0-t)” value is 0.8 h. Further, in data set [1] (male C57 mice, intragastric), the “MRT(0-∞)” value came out at 0.8 h, the T1/2 came to 1.4 h and the Tmax is given as 0.25 h. Further, the “effects on blood glucose and weight” value in data set [3] was “significant effects on reducing blood glucose and weight”.
On to `O=C(O)c1ccc2nc(CN3CCN(c4cccc(OCc5ccc(C#CC6CC6)cc5F)n4)CC3)n(C[C@@H]3CCO3)c2c1` [Compound 4], for which the EC50 on GLP-1R was found to be 1.75 nM.
At GLP-1R, `C#Cc1ccc(COc2nc(N3CCN(Cc4nc5ccc(C(=O)O)cc5n4C[C@@H]4CCO4)CC3)ccc2F)c(Cl)c1` [Compound 19] showed a half-maximal effective concentration (EC50) of 0.51 nM. For the same compound, in data set [1] (male, C57, mouse, in vivo, po), the AUC(0-inf) was determined as 10300 ng·h/mL, the AUC(0-t) worked out at 10300 ng·h/mL, the highest level (Cmax) was 3300 ng/mL and the MRT inf worked out at 2.7 h. In addition, in data set [1] (male, C57, mouse, in vivo, po), the MRT last was determined as 2.7 h, the Tmax turned out to be 0.5 h and the half-life was 2.4 h.
